According to patent US4996227A, “3-(heteroarylalkyene)- and 3-(arylalkylene)-2,4(3H,5H)-heterocyclic diones as cancer chemotherapy drugs” (priority 1989, dated 1991):
Read-outs that look alike come from different tables or passages of the source.

Key:
healthy mice [1] = assay: Toxicology testing in healthy mice: hematology; type: in vivo; conditions: for Absolute Neutrophils / Hemoglobin / WBC: i.p.
Experimental: (§1) The purpose of this example was to determine approximate toxicity of the compound 3[(5-methyl-2-thienyl) methylene]-2,4(3H,5H)-furandione in healthy mice. The in vivo concentrations employed in the example were selected by using the in vitro results in the Human Tumor Stem Cell Assay as a guide. The compound was given to the mice by means of intra-peritoneal injection. In addition to a control group which was injected with the appropriate carrier solution without drug, three test groups with calculated plasma concentrations of 1, 10 and 100 mcg/ml (low, medium and high concentrations) were prepared. Based upon the results from Table 1, the three test groups represent low, medium and high concentrations of drug dosages. The highest concentration of 100 mcg/ml is about 10 times the predicted effective dose (in vivo) of tumoricidal activity. Each group contained eight animals. Blood was extracted from four animals in each group two days after the intraperitoneal injection and routine hematology (i.e., a hemoglobin concentration, a white blood cell count, and a neutrophil count) procedures were performed.
(§2) Half of the animals in each group were sacrificed after one week (Day 7), and the remaining animals in each group were sacrificed after two weeks (Day 14). Routine hematology was performed at the time of sacrifice.

healthy mice [2] = assay: Toxicology testing in healthy mice: pathological evaluation; type: in vivo
Experimental: as §1
As previously stated, half of the animals in each group were sacrificed after one week (Day 7), and the remaining animals were sacrificed after two weeks (Day 14). […]

human tumors = assay: Human Tumor Stem Cell Assay, summary over the tumor panel; type: cell-based; conditions: for activity at 1 µg/mL: Homo sapiens, 1.0 mcg/ml, 1 h
From the text: The in vitro Human Tumor Stem Cell Assay procedure described as follows has several advantages for testing the effectiveness of chemotherapy drugs such as the 3-(heteroarylalkylene)-2,4(3H,5H)-furandiones. The first advantage is that fresh tumor cells from a variety of tumor types were used rather than a small number of cell lines which have undergone severe selection pressures as they are passed in vitro. The second advantage is that only the anchorage-independent tumor cells will form colonies in soft agar so that any non-malignant cells present in the sample will not form colonies. Perhaps the most important advantage, however, is the emphasis on cells which have the ability to form colonies. These cells, which are generally called stem cells, usually comprise only a small percentage of all tumor cells. They are thought to be the most important cells for growth and distant spread of a tumor. In particular, these cells have the potential to leave the primary tumor and form new tumors at distant sites (called metastases). It is the effectiveness against these very important stem cells that the Human Tumor Stem Cell Assay measures.
One of the 3-(heteroarylalkylene)-2,4(3H,5H)-furandione compounds, 3-[(5-methyl-2-thienyl) methylene]-2,4(3H,5H)-furandione was evaluated against a series of 10 human tumors in the in vitro Human Tumor Cell Assay, along with conventional and standard chemotherapy agents.
In the procedure, a single cell suspension was prepared from tumors excised from patients during therapeutic or diagnostic surgical procedures. The human tumor cells were exposed to known anticancer drugs or to [(5-methyl-2-thienyl)methylene]-2,4 (3H, 5H)-furandione at a low (0.2 mcg/ml) or a high (1.0 mcg/ml) concentration for one hour. […] The suspension was washed with tissue culture medium to remove the drug.
The suspension was then cultured in a double soft agar suspension. Control cells which had been treated identically, except for exposure to the drugs, were also cultured. After one to two weeks, both the tumor cells and the control cells formed colonies in the soft agar which were enumerated under a microscope. The number of colonies grown from the drug-treated cells was compared to the number of colonies grown from the control cells, and the percentage growth after exposure to the drug was calculated.
The results are illustrated in Table 1, wherein the various numbers indicate the percentage of growth. For example, a small number like 6 means that the number of colonies is only 6% of the number without addition of the compound. On the other hand, a large number like 120 means that the number of colonies is 20% greater with the compound than without. […]

healthy mice [3] = assay: Toxicology testing in healthy mice: deaths / LD50; type: in vivo; conditions: i.p.
Experimental: as §1, §2

[4] = high, 100 mcg/ml calculated plasma, Day 2
[5] = high, 100 mcg/ml calculated plasma, Day 7
[6] = high, 100 mcg/ml calculated plasma, Day 14
[7] = low, 1 mcg/ml calculated plasma, Day 2
[8] = low, 1 mcg/ml calculated plasma, Day 7
[9] = low, 1 mcg/ml calculated plasma, Day 14
[10] = medium, 10 mcg/ml calculated plasma, Day 2
[11] = medium, 10 mcg/ml calculated plasma, Day 7
[12] = medium, 10 mcg/ml calculated plasma, Day 14

Cc1ccc(C=C2C(=O)COC2=O)s1 [Compound 4, 3[(5-methyl-2-thienyl)methylene]2,4(3H,5H)-furandione]
absolute neutrophil count, change (healthy mice [1]; after one week): significant decrease in the absolute neutrophil count after one week, indicating suppression of bone marrow | total white blood cell count, change (healthy mice [1]; all groups): slightly decreased from Day 2 to Day 7, the count increased in all groups from Day 7 to Day 14 | hemoglobin levels, change (healthy mice [1]; all test groups, 14-day test period): no significant decreases in hemoglobin levels | myelosuppression in vivo (healthy mice [1]; at drug level predicted by the in vitro assay): some myelosuppression in vivo | platelet count, change (healthy mice [1]; blood smears): platelet count was not significantly decreased | Absolute Neutrophils (healthy mice [1]; [4]): 5224 cells/ul | Hemoglobin (healthy mice [1]; [4]): 13.2 g/100 ml | WBC (healthy mice [1]; [4]): 9594 Cells/ul | Hemoglobin (healthy mice [1]; [5]): 13.6 g/100 ml | WBC (healthy mice [1]; [5]): 5775 Cells/ul | Absolute Neutrophils (healthy mice [1]; high, 100 mcg/ml calculated plasma, Day 7 (text SD=622), 4 (3H, 5H) FURANDIONE): 1167 cells/ul | Absolute Neutrophils (healthy mice [1]; high, 100 mcg/ml calculated plasma, Day 7 (text SD=622), listed as tested furandione compound): 1,167 cells/ul | Absolute Neutrophils (healthy mice [1]; [6]): 2025 cells/ul | Hemoglobin (healthy mice [1]; [6]): 13.9 g/100 ml | WBC (healthy mice [1]; [6]): 12,175 Cells/ul | Absolute Neutrophils (healthy mice [1]; [7]): 2869 cells/ul | Hemoglobin (healthy mice [1]; [7]): 13.7 g/100 ml | WBC (healthy mice [1]; [7]): 7000 Cells/ul | Hemoglobin (healthy mice [1]; [8]): 14.25 g/100 ml | WBC (healthy mice [1]; [8]): 6562 Cells/ul | Absolute Neutrophils (healthy mice [1]; low, 1 mcg/ml calculated plasma, Day 7 (text SD=942), 4 (3H, 5H) FURANDIONE): 1731 cells/ul | Absolute Neutrophils (healthy mice [1]; low, 1 mcg/ml calculated plasma, Day 7 (text SD=942), listed as tested furandione compound): 1,731 cells/ul | Hemoglobin (healthy mice [1]; [9]): 13.6 g/100 ml | WBC (healthy mice [1]; [9]): 9675 Cells/ul | Absolute Neutrophils (healthy mice [1]; low, 1 mcg/ml calculated plasma, Day 14, three animals): 2183 cells/ul | neutrophil difference vs control (healthy mice [1]; low, 1 mcg/ml, Day 7): no significant difference between the control and the low concentration group | Absolute Neutrophils (healthy mice [1]; [10]): 3946 cells/ul | Hemoglobin (healthy mice [1]; [10]): 13.6 g/100 ml | WBC (healthy mice [1]; [10]): 7787 Cells/ul | Hemoglobin (healthy mice [1]; [11]): 13.9 g/100 ml | WBC (healthy mice [1]; [11]): 5812 Cells/ul | Absolute Neutrophils (healthy mice [1]; medium, 10 mcg/ml calculated plasma, Day 7 (text SD=492), 4 (3H, 5H) FURANDIONE): 1009 cells/ul | Absolute Neutrophils (healthy mice [1]; medium, 10 mcg/ml calculated plasma, Day 7 (text SD=492), listed as tested furandione compound): 1,009 cells/ul | Hemoglobin (healthy mice [1]; [12]): 13.6 g/100 ml | WBC (healthy mice [1]; [12]): 8700 Cells/ul | Absolute Neutrophils (healthy mice [1]; medium, 10 mcg/ml calculated plasma, Day 14, three animals): 1256 cells/ul | P, neutrophil difference vs control (healthy mice [1]; medium, 10 mcg/ml, Day 7): < 0.05 | pathology of organs, bone, brain, etc. (healthy mice [2]; all dose groups, 7 or 14 days): not remarkably altered within the testing period | pathology of organs, bone, etc., vs low concentration and control groups (healthy mice [2]; high concentrations): do not appear to affect any of the organs, bone, etc. of the test animals to any lesser or greater degree than the low concentration drug group or the control group | activity at 1 µg/mL (human tumors; five of nine tumors, read-out: growth, borderline sensitive tumors): 30 to 50% | activity at 1 µg/mL (human tumors; four of nine tumors, read-out: growth, sensitive tumors): 0 to 30% | peak plasma concentration at which compound should be effective in vivo (human tumors; by analogy with other chemotherapy drugs): 10 µg/mL | activity against human solid tumors in vitro (human tumors; one hour exposure, 1 mcg/ml): extremely active against a wide variety of human solid tumors in vitro | deaths due to the compound (healthy mice [3]; 1, 10, 100 mcg/ml calculated plasma, testing period): no deaths | LD50 (healthy mice [3]; as calculated plasma concentration): > 100 µg/mL
